Where two headings read alike, the source gives them in different places.
Legend:
[1] = tested on: MCF-7 cells (human breast cancer cells); experiment: SRB cytotoxicity assay, MCF-7 cells; type: cell-based; conditions: for inhibition at 10 µM: MCF7, 10 μM, 72 h
Protocol: (§1) A549 cells (human lung carcinoma cells), MCF-7 cells (human breast cancer cells), HeLa cells (human cervical cancer cells), HepG2 cells (human hepatocellular carcinoma cells), and HUVEC cells (human umbilical vein endothelial cells) were kindly provided by WeiFang Caleb Pharmaceuticals, Inc. A549 cells were cultured in Ham's F12K medium containing 10% fetal bovine serum, 2 mM L-glutamine, and 1.5 g/L sodium bicarbonate; MCF-7 cells were cultured on cell culture flask using RPMI 1640 medium with 2 mM L-glutamine adjusted to contain 1.5 g/L sodium bicarbonate, 4.5 g/L glucose, 10 mM HEPES, 1.0 mM sodium pyruvate, and 10% fetal bovine serum. Hela cells were cultured on Cell culture flask using 2 mM L-glutamine adjusted to contain 1.5 g/L sodium bicarbonate, 4.5 g/L glucose, 10 mM HEPES, and 1.0 mM sodium pyruvate in RPMI 1640 medium supplemented with 0.5 mg/ml G418 and 10% fetal bovine serum. HepG2 cells were cultured in minimum essential medium (Eagle) with 2 mM L-glutamine, Earle's BSS, 1.5 g/L sodium bicarbonate, 0.1 mM non-essential amino acids, 1.0 mM sodium pyruvate, and 10% fetal bovine serum. HUVEC cells were cultured in M199 medium containing 2 mM L-glutamine adjusted to contain 1.5 g/L sodium bicarbonate, 4.5 g/L glucose, 10 mM HEPES, 1.0 mM sodium pyruvate, ECGS, and 10% fetal bovine serum. All cells were cultured at 37°C in 5% CO2.
(§2) The cell proliferation of adherent cells was determined by sulforhodamine B assay (SRB) (Quan et al., [2009]; Li et al., [2017]). All cells were cultured in culture medium containing 10% fetal bovine serum and have been in the logarithmic growth phase. All cell types were seeded in a 96-well culture plate at a concentration of 1–5 × 10^4 cells per well at 37°C in a 5% CO2 incubator for 24 h. The cells were then exposed to seven drug concentrations of dihomooxacalix[4]arene derivatives for 72 h with each concentration located in three wells. Then, the cells were fixed with trichloroacetic acid (TCA). After washing, SRB working solution was added to the cells to […]. SRB combined with protein was dissolved in Tris base. OD values were measured for each well with a SPECTRA max 190 Cell microplate reader under 540 nm wavelength. According to the OD value, the cell growth inhibition rate was calculated.

[2] = tested on: HepG2 cells (human hepatocellular carcinoma cells); experiment: SRB cytotoxicity assay, HepG2 cells; type: cell-based
Protocol: as §1, §2

[3] = tested on: HeLa cells (human cervical cancer cells); experiment: SRB cytotoxicity assay, HeLa cells; type: cell-based
Protocol: as §1, §2

[4] = tested on: HUVEC cells (human umbilical vein endothelial cells); experiment: SRB cytotoxicity assay, HUVEC normal cells; type: cell-based
Protocol: as §1, §2

[5] = tested on: A549 cells (human lung carcinoma cells); experiment: SRB cytotoxicity assay, A549 cells; type: cell-based
Protocol: as §1, §2

[6] = Homo sapiens, HUVEC, 72 h, 10 μM, SRB, toxicity to normal cells
[7] = MCF7, 72 h, SRB, read-out: IC50 (μM) MCF-7
[8] = 72 h, SRB, read-out: IC50 (μM) HepG2
[9] = 72 h, SRB, read-out: IC50 (μM) HeLa
[10] = 72 h, SRB, read-out: IC50 (μM) A549

SMILES	inhibition at 10 µM ([1]; SRB) [%]	inhibition at 10 µM ([2]; 72 h, SRB) [%]	inhibition at 10 µM ([3]; 72 h, SRB) [%]	melting point [°C]	inhibition at 10 µM [4, 6] [%]	inhibition at 10 µM ([5]; 72 h, SRB) [%]	IC50 ([1]; MCF7, printed in the % inhibition column of Table 1, read-out: IC50 MCF-7 (positive control)) [µM]	IC50 ([2]; printed in the % inhibition column of Table 1, read-out: IC50 HepG2 (positive control)) [µM]	IC50 ([3]; HeLa, printed in the % inhibition column of Table 1, read-out: IC50 HeLa (positive control)) [µM]	IC50 ([4]; Homo sapiens, HUVEC, printed in the % inhibition column of Table 1, read-out: IC50 HUVEC (positive control)) [nM]	IC50 ([5]; printed in the % inhibition column of Table 1, read-out: IC50 A549 (positive control)) [µM]	IC50 [1, 7] [µM]	IC50 [2, 8] [µM]	IC50 [3, 9] [µM]	IC50 [5, 10] [µM]	% inhibition at 10 μM HUVEC ([4]; 10 μM, 72 h, SRB, toxicity to normal cells) [%]
CC(C)(C)c1cc2c(O)c(c1)Cc1cc(C(C)(C)C)cc3c1OCC(=O)NCCCCNC(=O)COc1c(cc(C(C)(C)C)cc1Cc1cc(C(C)(C)C)cc(c1O)C3)COC2 [Compound 4G]	34	16	40	157.6 to 158.7	34	21	–	–	–	–	–	–	–	–	–	–
CC(=O)O[C@H]1C(=O)[C@@]2(C)[C@H]([C@H](OC(=O)c3ccccc3)[C@]3(O)C[C@H](OC(=O)[C@H](O)[C@@H](NC(=O)c4ccccc4)c4ccccc4)C(C)=C1C3(C)C)[C@]1(OC(C)=O)CO[C@@H]1C[C@@H]2O [Paclitaxel, paclitaxel, reference compound]	–	–	–	–	–	–	0.0008	0.005	0.0027	1	0.00059	–	–	–	–	–
CC(C)(C)c1cc2c(O)c(c1)Cc1cc(C(C)(C)C)cc(c1OCC(=O)NCCO)Cc1cc(C(C)(C)C)cc(c1O)Cc1cc(C(C)(C)C)cc(c1OCC(=O)NC1CCCC1)COC2 [Compound 4Q, 7,13,19,25-tetra-tert-butyl-28,30-di-hydroxy-27-(N-clopentyl-aminocarbonylmethoxyl)-29-(N-(2-hydroxyethyl)-aminocarbonylmethoxyl)-2,3-dihomo-3-oxacalix[4]arene]	–	–	–	138.3 to 140.5	–	–	–	–	–	–	–	–	–	–	–	–
CC(C)(C)c1cc2c(O)c(c1)Cc1cc(C(C)(C)C)cc(c1OCC(=O)NCCO)Cc1cc(C(C)(C)C)cc(c1O)Cc1cc(C(C)(C)C)cc(c1OCC(=O)NCCc1ccccc1)COC2 [Compound 4R, 7,13,19,25-tetra-tert-butyl-28,30-di-hydroxy-27-(N-phenethyl-aminocarbonylmethoxyl)-29-(N-(2-hydroxyethyl)-aminocarbonylmethoxyl)-2,3-dihomo-3-oxacalix[4]arene]	–	–	–	120.7 to 123.3	–	–	–	–	–	–	–	–	–	–	–	–
COc1ccc(CCNC(=O)COc2c3cc(C(C)(C)C)cc2Cc2cc(C(C)(C)C)cc(c2O)Cc2cc(C(C)(C)C)cc(c2OCC(=O)NCCc2ccc(OC)c(OC)c2)Cc2cc(C(C)(C)C)cc(c2O)COC3)cc1OC [Compound 4P, 7,13,19,25-tetra-tert-butyl-28,30-di-hydroxy-27,29-di-(N-(3,4-dimethoxyphenethyl)-aminocarbonylmethoxyl)-2,3-dihomo-3-oxacalix [4]arene]	0	11	37	117.4 to 120.1	0	22	–	–	–	–	–	–	–	–	–	–
CC(C)(C)c1cc2c(O)c(c1)Cc1cc(C(C)(C)C)cc(c1OCC(=O)N(CCO)CCO)Cc1cc(C(C)(C)C)cc(c1O)Cc1cc(C(C)(C)C)cc(c1OCC(=O)N(CCO)CCO)COC2 [Compound 4B, 7,13,19,25-tetra-tert-butyl-28,30-di-hydroxy-27,29-di-(N,N-bis(2-hydroxyethyl)-aminocarbonylmethoxyl)-2,3-dihomo−3-oxacalix[4]arene]	73	39	100	210.7 to 212.5	23	66	–	–	–	–	–	4.4 ± 0.7	3.8 ± 0.3	1.1 ± 0.5	3.9 ± 0.5	–
CC(C)NC(=O)COc1c2cc(C(C)(C)C)cc1Cc1cc(C(C)(C)C)cc(c1O)Cc1cc(C(C)(C)C)cc(c1OCC(=O)NC(C)C)Cc1cc(C(C)(C)C)cc(c1O)COC2 [Compound 4I, 7,13,19,25-tetra-tert-butyl-28,30-di-hydroxy-27,29-di-(N-isopropyl-aminocarbonylmethoxyl)-2,3-dihomo-3-oxa calix[4]arene]	17	9	44	133.3 to 135.7	16	45	–	–	–	–	–	–	–	–	–	–
CCCCNC(=O)COc1c2cc(C(C)(C)C)cc1Cc1cc(C(C)(C)C)cc(c1O)Cc1cc(C(C)(C)C)cc(c1OCC(=O)NCCCC)Cc1cc(C(C)(C)C)cc(c1O)COC2 [Compound 4K, 7,13,19,25-tetra-tert-butyl-28,30-di-hydroxy-27,29-di-(N-butyl-aminocarbonylmethoxyl)-2,3-dihomo-3-oxacalix[4] arene]	41	6	42	119.5 to 120.8	1	65	–	–	–	–	–	–	–	–	4.5 ± 1.4	–
CCCCCNC(=O)COc1c2cc(C(C)(C)C)cc1Cc1cc(C(C)(C)C)cc(c1O)Cc1cc(C(C)(C)C)cc(c1OCC(=O)NCCCCC)Cc1cc(C(C)(C)C)cc(c1O)COC2 [Compound 4L, 7,13,19,25-tetra-tert-butyl-28,30-di-hydroxy-27,29-di-(N-pentyl-aminocarbonylmethoxyl)-2,3-dihomo-3-oxacalix[4] arene]	41	18	49	117.7 to 119.3	12	66	–	–	–	–	–	–	–	–	1.7 ± 0.4	–
CC(C)(C)c1cc2c(O)c(c1)Cc1cc(C(C)(C)C)cc(c1OCC(=O)NCc1ccccc1)Cc1cc(C(C)(C)C)cc(c1O)Cc1cc(C(C)(C)C)cc(c1OCC(=O)NCc1ccccc1)COC2 [Compound 4N, 7,13,19,25-tetra-tert-butyl-28,30-di-hydroxy-27,29-di-(N-benzyl-aminocarbonylmethoxyl)-2,3-dihomo-3-oxacalix[4] arene]	43	10	49	183.7 to 186.4	21	64	–	–	–	–	–	–	–	–	6.8 ± 0.5	–
CC(C)(C)c1cc2c(O)c(c1)Cc1cc(C(C)(C)C)cc(c1OCC(=O)NC1CCCC1)Cc1cc(C(C)(C)C)cc(c1O)Cc1cc(C(C)(C)C)cc(c1OCC(=O)NC1CCCC1)COC2 [Compound 4M, 7,13,19,25-tetra-tert-butyl-28,30-di-hydroxy-27,29-di-(N-clopentyl-aminocarbonylmethoxyl)-2,3-dihomo-3-oxacalix[4]arene]	29	12	52	145.9 to 148.2	14	66	–	–	–	–	–	–	–	–	10.1 ± 1.8	–
CC(C)(C)c1cc2c(O)c(c1)Cc1cc(C(C)(C)C)cc(c1OCC(=O)NCCO)Cc1cc(C(C)(C)C)cc(c1O)Cc1cc(C(C)(C)C)cc(c1OCC(=O)NCCO)C2 [CLX-4, 5,11,17,23-tetra-tert-butyl-25,27-bis [N-(2-hydroxyethyl)aminocarbonylmethoxyl] calix[4]arene, reference compound]	99	94	92	–	18	93	–	–	–	–	–	2.1 ± 0.4	6.6 ± 0.8	1.9 ± 0.2	2.8 ± 0.3	16
CC(C)(C)c1cc2c(O)c(c1)Cc1cc(C(C)(C)C)cc(c1OCC(=O)NCCO)Cc1cc(C(C)(C)C)cc(c1O)Cc1cc(C(C)(C)C)cc(c1OCC(=O)N(CCO)CCO)COC2 [Compound 4S, 7,13,19,25-tetra-tert-butyl-28,30-di-hydroxy-27-(N,N-bis(2-hydroxyethyl)-aminocarbonylmethoxyl)-29-(N-(2-hydroxyethyl)-aminocarbonylmethoxyl)-2,3-dihomo-3-oxacalix[4]arene]	–	–	–	144.4 to 146.2	–	–	–	–	–	–	–	–	–	–	–	–

Source: publication PMC6923765, “Structural Design, Synthesis, and Preliminary Biological Evaluation of Novel Dihomooxacalix[4]arene-Based Anti-tumor Agents” (Frontiers in Chemistry, 2019)
